Like-named read-outs stand apart in the source and are kept apart here.
Key:
[1] = Procedure: Toxicity Studies: 4-6 weeks old female BNX mice were treated with chemotherapeutic agents of multiple classes as monotherapy or in combination with carfilzomib. Two weeks toxicity studies were performed at doses and dose schedules as mentioned in the figure legend. Toxicity was measured as body weight loss three times a week.
The dose schedule as shown in FIG. 2A was Doxil day 1 (iv), after one hour Compound 1 day 1, 2 (iv).
The dose schedule as shown in FIG. 5A was docetaxel day 1 (iv), after one hour Compound 1 day 1, 2 (iv).

RL human lymphoma cells = assay: RL human lymphoma xenograft, Example 1 (FIG. 1); type: in vivo, Immunocompromised mice (BNX); conditions: Compound 1 IV Days 1 and 2 each week + SAHA IP Days 1-5 each week; two-way ANOVA, Bonferroni
Procedure: Immunocompromised mice (BNX, Charles River Laboratories) were challenged with subcutaneous administration of RL human lymphoma cells (1×10^7/mouse) on the right flank in a total volume of 0.1 mL phosphate buffered saline (PBS). When tumors were approximately 50 mm^3 in size (as indicated by the arrow in FIG. 1), mice were randomized to treatment groups (9 mice/group). Compound 1 was administered intravenously (IV) in a solution of 10% (w/v) sulfobutylether-betacyclodextrin in aqueous 10 mM citrate buffer pH 3.5. Administration was given on Days 1 and 2 each week. SAHA was formulated in 100% DMSO and administered intraperiotoneally (IP) on Days 1-5 each week. ***=P<0.001 (Compound 1+SAHA vs. Vehicle) by two-way ANOVA and Bonferroni post-hoc comparisons.

RL tumors = assay: RL lymphoma xenograft, Example 2 (FIG. 9); type: in vivo, BNX mice
Procedure: (§1) Statistical significance was achieved when p<0.05.
(§2) The effect of the combination of Compound 1 (3 mg/kg) and vorinostat (50 mg/kg) (n=8/group) on established RL tumors is shown in FIG. 9 (arrow indicates start of dosing period). The effect of the combination of Compound 1 (3 mg/kg) and vorinostat (50 mg/kg) (n=8/group) on established ES2 tumors. **, P<0.01; and ***, P<0.001 vs monotherapy and vehicle is shown in FIG. 10 (arrow indicates start of dosing period).

[2] = system: A549 non-small cell lung cancer xenograft; assay: A549 non-small cell lung cancer xenograft model (FIG. 4, 6, 7); type: in vivo, BNX mice
Procedure: (§3) Xenograft studies: Tumors were established by subcutaneous (s.c.) injection of cell lines (passage number <9 and viability >95% at the time of implantation) in the right flank of BNX mice (n=8/9 per group). RL (0.1 mL) cell suspensions containing 1×10^7 cells. 5×10^6 cell suspension (0.1 mL) were injected in case of HT-29, ES2 and A549 cells. Mice were randomized into treatment groups and dosing initiated when tumors size was approximately 100 mm^3. In all treatment groups, tumors were measured three times weekly by recording the longest perpendicular diameters and tumor volumes were calculated using the equation V (mm^3)=(length×width^2)/2.
(§4) Statistical analysis: For comparisons of treatment groups, a two-way ANOVA followed by Bonferroni post hoc analysis using GraphPad Prism Software (version 4.01) was performed. Statistical significance was achieved when p<0.05.

ES2 tumors = assay: ES2 ovarian xenograft (FIG. 10); type: in vivo, BNX mice; conditions: in combination with vorinostat (50 mg/kg), ovarian cancer model
Procedure: as §1, §2

[3] = system: MM1.S (multiply myeloma, dexamethasone sensitive) cells; assay: Cell titer glo viability, combination index with melphalan (FIG. 11); type: cell-based; conditions: Compound 1 6.58 nM + melphalan 11.1, 7.4, 4.9 and 3.3 μM; melphalan pretreatment 24 hours, then Compound 1 24 hours
Procedure: Compound 1 was tested at 6.58 nM in combination with melphalan at four different doses: 11.1, 7.4, 4.9 and 3.3 μM. MM1.S (multiply myeloma, dexamethasone sensitive) cells were plated at 200,000 cells/mL in 45 μL then pretreated with melphalan for 24 hours. Compound 1 was then added and the cells were incubated for an additional 24 hours at 6.58 nM. A 1:1 ratio of Cell titer glo solution was then added to the cell samples and read for viability. Combination index values were calculated using the Calcusyn program where values <0.9=synergy, 0.9-1.0=additive and >1.1=antagonistic.

[4] = system: relapsed multiple myeloma patients; assay: Phase Ib dose escalation study of carfilzomib plus lenalidomide and low-dose dexamethasone; type: in vivo; conditions: preliminary
Excerpt: Within the first three cohorts, seventeen patients were evaluable for response and toxicity.

[5] = system: HT29 colorectal xenograft; assay: HT29 colorectal xenograft model (FIG. 3)
Procedure: as §3, §4

[6] = combination of Compound 1 and vorinostat
[7] = combination Compound 1 (5 mg/kg) + Doxil (3 mg/kg)
[8] = combination Compound 1 at MTD (5 mg/kg) + docetaxel (5 mg/kg), FIG. 6
[9] = combination Compound 1 at sub-MTD (3 mg/kg) + sub-MTD docetaxel (5 mg/kg), FIG. 7

CC(C)C[C@H](NC(=O)[C@H](CCc1ccccc1)NC(=O)CN1CCOCC1)C(=O)N[C@@H](Cc1ccccc1)C(=O)N[C@@H](CC(C)C)C(=O)[C@@]1(C)CO1 [Compound 1, carfilzomib]
MTD ([1]; carfilzomib QDx2 (iv)): 5 mg/kg | tumor volume, P (Compound 1+SAHA vs. Vehicle) (RL human lymphoma cells): < 0.001 | RL tumor growth, p vs. Compound 1 or vorinostat alone (RL tumors; [6]): < 0.01 | RL tumor growth, p vs. control (RL tumors; [6]): < 0.001 | lymphoma (RL) tumor growth (RL tumors; combination with vorinostat, compared to vehicle controls or either single agent, Compound 1 3 mg/kg, vorinostat 50 mg/kg): significant reduction | anti-tumor effect of combination (RL tumors; in combination with vorinostat, lymphoma model): synergistic anti-tumor effect | tumor size, p vs. control or Doxil alone [2, 7]: < 0.001 | tumor size, significance vs. carfilzomib alone [2, 7]: No significance | tumor size, p vs. carfilzomib alone [2, 8]: < 0.05 | tumor size, p vs. control [2, 8]: < 0.001 | tumor size, p vs. carfilzomib and docetaxel [2, 9]: < 0.01 | tumor size, p vs. control [2, 9]: < 0.001 | A549 tumor growth ([2]; combination with docetaxel, compared to vehicle controls or either single agent): significant reduction | anti-tumor effect of combination ([2]; in combination with docetaxel at sub-MTD doses, human lung cancer model): synergistic anti-tumor effect | anti-tumor property of combination (ES2 tumors): effective anti-tumor property | combination effect (combination index, Calcusyn) [3]: synergistic and additive effects | maximum tolerated dose (MTD) ([4]; first three cohorts): not yet reached | Responses [4]: durable | anti-tumor effect of combination ([5]; Compound 1 and Doxil at sub-MTD doses, solid tumor model): synergistic anti-tumor effect | tumor burden ([5]; Compound 1 and Doxil combination, HT-29 xenograft model): significantly reduced tumor burden | anti-tumor activity ([5]; Compound 1 at MTD (5 mg/kg) and sub-MTD of Doxil (3 mg/kg)): increased anti-tumor activity | tumor size, p vs. Doxil alone [5, 7]: < 0.01 | tumor size, p vs. control or carfilzomib alone [5, 7]: < 0.001

CC(=O)O[C@@]12CO[C@@H]1C[C@H](O)[C@@]1(C)C(=O)[C@H](O)C3=C(C)[C@@H](OC(=O)[C@H](O)[C@@H](NC(=O)OC(C)(C)C)c4ccccc4)C[C@@](O)([C@@H](OC(=O)c4ccccc4)[C@H]21)C3(C)C [docetaxel, reference compound]
MTD ([1]; docetaxel in combination with carfilzomib, docetaxel day 1 (iv), Compound 1 day 1, 2 (iv)): 10 mg/kg
